Values quoted from earlier work in patent US20110195988A1, “Pharmaceutical Composition” (Special Products Limited, priority 2010, published 2011).

Conditions: oral formulations of morphine

CN1CC[C@]23c4c5ccc(O)c4O[C@H]2[C@@H](O)C=C[C@H]3[C@H]1C5 [morphine]
time after administration at which the analgesic effect is observed: around 30 minutes
